# Experimental data: US20250011881A1, “MYC-HSF1 DUAL AMPLIFICATION AS A BIOMARKER FOR CANCER TREATMENT” (The Trustees of Indiana University, priority 2023, published 2025)
# Values joined by “and” are separate entries in the source; they are usually repeats but may differ in a detail not shown here. Equal values may be shown once. Where a name gives a salt, the structure may show the parent alone.
# System: ovarian cancer cells with (OVCAR8, OVCAR4) or without (OVSAHO, CAOV3) MYC-HSF1 amplification
# Experiment: Epigenetic inhibitor drug screen, cell viability (Cell Titer Blue)
# Type: cell-based
# Conditions: not given
row,Structure (SMILES),Non Amp - AMP (POC) 10 uM
1,CC(C)(O)/C=C/C(=O)[C@](C)(O)[C@H]1[C@H](O)C[C@@]2(C)[C@@H]3CC=C4[C@@H](C=C(O)C(=O)C4(C)C)[C@]3(C)C(=O)C[C@]12C [Cucurbitacin I],0.02387 POC
2,C/C(O)=C(\C#N)C(=O)Nc1cc(Br)ccc1Br [LFM-A13],5.442 POC
3,C=C1C(=O)O[C@@H](CCC)[C@@H]1C(=O)O [Butyrolacetone 3],9.966 POC

# Same assay, conditions: 10 uM, 48 hrs; average relative cell viability (vs 1% DMSO) of non-amplified cells (OVSAHO, CAOV3) minus that of MYC-HSF1 amplified cells (OVCAR8, OVCAR4); positive = greater response in amplified cells
row,Structure (SMILES),Non Amp - AMP (POC) 10 uM
1,CCC1C/C(=C\c2cccnc2)C(=O)/C(=C/c2cccnc2)C1 (stereo not shown) [MCB-613],−5.355 POC
2,CNNCc1ccc(C(=O)NC(C)C)cc1 [Procarbazine HCl],1.149 POC
3,O=C(CCCCCCC(=O)Nc1cccnc1)NO [Pyroxamide],60.34 POC
4,Cc1cc(Cl)ccc1OCCCC(=O)NO [Droxinostat],−21.53 POC
5,CN1C/C=C/CCOc2cccc(c2)-c2ccnc(n2)Nc2cccc(c2)C1 [SB1317],5.059 POC
6,O=C(NO)c1cccc(C(=O)NCCc2ccccc2)c1 [BRD73954],10.33 POC
7,COc1cc2nc(N3CCCC3)nc(NCCCCCN3CCCC3)c2cc1OC [UNC0379],21.92 POC
8,C[C@H](NC(=O)/C(C#N)=C/c1cccc(Br)n1)c1ccccc1 [WP1066],3.079 POC
9,O=C(NCC1(c2nc(-c3ccccc3)cs2)CCOCC1)c1cccc(-c2noc(C(F)(F)F)n2)c1 [TMP269],16.29 POC
10,C[C@H](NC(=O)CCc1nc2ccccc2c(=O)[nH]1)c1ccccc1 [ME0328],15.81 POC
11,CC(C)c1cc(CNc2nc(Nc3cc(C4CC4)[nH]n3)cc(N3CCN(C)CC3)n2)on1 [XL228],17.3 POC
12,"CN1CCC(=C2c3ccccc3C=Cc3ccccc32)CC1 [Cyproheptadine (hydrochloride hydrate), Cyproheptadine]",6.958 POC
13,CN(C)c1ccc(-c2nc3ncc(Cl)c(N4CCN(CC(=O)Nc5nccs5)CC4)c3[nH]2)cc1 [CCT129202],2.662 POC
14,O=C(NCc1ccncc1)C12CC3CC(C1)CC(c1ccc(Cl)cc1)(C3)C2 [ABC294640],4.657 POC
15,O=C(O)[C@]1(Cc2cccc(Nc3nccs3)n2)CC[C@@H](Oc2cccc(Cl)c2F)CC1 [MK-5108 (VX-689)],0.08992 POC
16,CCN(CC)Cc1cc(Nc2ccnc3cc(Cl)ccc23)ccc1O [Amodiaquine dihydrochloride dihydrate],−0.1196 POC
17,Cc1cc(-c2nc(-c3ccc(OC(F)(F)F)cc3)no2)nn1Cc1ccnc(N2CCN(C3CC3)CC2)c1 [BAY 87-2243],11.79 POC
18,Cn1cc(C(=O)Nc2ccc3c(c2)OCCO3)c2ccccc2c1=O [CeMMEC1],−1.809 POC
19,Br.CC1CC/C(=N\Nc2nc(-c3ccc(Cl)cc3)cs2)C1 (stereo not shown) [CPTH6 (hydrobromide)],13.3 POC
20,CC(C)N(CCCNC(=O)Nc1ccc(C(C)(C)C)cc1)C[C@H]1O[C@@H](n2ccc3c(N)ncnc32)[C@H](O)[C@@H]1O [EPZ004777],6.632 POC
21,O=C1C(=Cc2cccnc2)C(=O)c2ccccc21 [PRT4165],1.398 POC
22,NC(=O)c1ccccc1 [Benzamide],−5.576 POC
23,C#CCC(CCCCCC)C(=O)O (stereo not shown) [2-hexyl-4-Pentynoic Acid],2.599 POC
24,CC(C)c1ccc(-c2cc(=O)c3ccccc3o2)cc1 [MN 64],−7.835 POC
25,[H]/N=C(/N)N/C(=N/[H])NCCc1ccccc1 [Phenformin HCl],7.32 POC

row,Structure (SMILES),Non Amp - AMP (POC) 10 uM
1,O=C(COc1cccc2c(=O)[nH]ccc12)c1ccccc1 [UPF 1069],−6.052 POC
2,COc1ccc2c(c1)c(C1=C(c3c[nH]c4ccccc34)C(=O)NC1=O)cn2CCCN(C)C [Go 6983],14.34 POC
3,O=C(/C=C/c1ccc(O)c2c1[C@H](C(=O)O[C@H](Cc1ccc(O)c(O)c1)C(=O)O)[C@@H](c1ccc(O)c(O)c1)O2)O[C@H](Cc1ccc(O)c(O)c1)C(=O)O [Salvianolic acid B],2.345 POC
4,"Cn1cc(C2=C(c3cn(C4CCN(Cc5ccccn5)CC4)c4ccccc34)C(=O)NC2=O)c2ccccc21 [Enzastaurin (LY317615), Enzastaurin]",13.08 POC
5,"CCN(CCO)CCCOc1ccc2c(Nc3cc(CC(=O)Nc4cccc(F)c4)[nH]n3)ncnc2c1 [Barasertib (AZD1152-HQPA), Barasertib]",−16.49 POC
6,Nc1cc(F)ccc1NC(=O)c1ccc(CNC(=O)/C=C/c2cccnc2)cc1 [Chidamide],33.85 POC
7,Cl.Clc1ccc(-c2csc(NN=C3CCCC3)n2)cc1 [CPTH2 (hydrochloride)],6.251 POC
8,N#Cc1c(Oc2ccc(F)c(NC(=O)Cc3cccc(C(F)(F)F)c3)c2)ccc2nc(NC(=O)C3CC3)sc12 [TAK-632],−12.18 POC
9,CCC(=O)N1CCOc2c(cc(-c3ccc(OC)c(OC)c3)cc2OC[C@H]2CCCN(C)C2)C1 [I-CBP112 (hydrochloride)],20.48 POC
10,C#Cc1cccc(Nc2ncnc3cc(OC)c(OCCCCCCC(=O)NO)cc23)c1 [CUDC-101],28.26 POC
11,CN(C)Cc1ccc(-c2nc3cccc4c3n2CCNC4=O)cc1 [AG-14361],0.2059 POC
12,CCS(=O)(=O)N1CCC([C@@H](C)n2c(C)c(C(=O)NCc3c(OC)cc(C)[nH]c3=O)c3ccccc32)CC1 [CPI-169],3.906 POC
13,"O=C(c1cc(Cc2n[nH]c(=O)c3ccccc23)ccc1F)N1CCN(C(=O)C2CC2)CC1 [Olaparib (AZD2281, Ku-0059436), Olaparib]",3.527 POC
14,"CO[C@@H](C(=O)N1Cc2n[nH]c(NC(=O)c3ccc(N4CCN(C)CC4)cc3)c2C1)c1ccccc1 [Danusertib (PHA-739358), Danusertib]",−1.72 POC
15,COc1cc2ncnc(Nc3ccc(O)c(Br)c3)c2cc1OC [WHI-P154],−1.78 POC
16,O=C1c2c(O)ccc(O)c2C(=O)c2c(NCCNCCO)ccc(NCCNCCO)c21 [Mitoxantrone HCl],11.28 POC
17,O=C(O)CCNc1cc(N2CCc3ccccc3CC2)nc(-c2ccccn2)n1 [GSK-J1 (sodium salt)],8.487 POC
18,O=C([O-])CCCc1ccccc1.[Na+] [Sodium 4-phenylbutyrate],6.103 POC
19,"CCOC(=O)NNc1nncc2ccccc12 [Todralazine (hydrochloride), Todralazine]",13.07 POC
20,Cc1cc(C)c(CNC(=O)c2cc(-c3ccc(CN4CCOCC4)cc3)cc3c2cnn3C2CCCC2)c(=O)[nH]1 [EPZ005687],15.13 POC
21,"COc1cc2c(cc1O)CC[C@@H]1[C@@H]2CC[C@]2(C)[C@@H](O)CC[C@@H]12 [2-Methoxyestradiol (2-MeOE2), 2-Methoxyestradiol]",23.41 POC
22,NC(=O)c1ccccn1 [Picolinamide],20.35 POC
23,NC(=O)c1cccnc1 [Nicotinamide],−2.471 POC
24,Cc1ccc2nc(NCCN)c3ncc(C)n3c2c1 [BMS-345541 (free base)],19.27 POC

# Same assay, conditions: 10 uM, 48 hrs; average relative cell viability (vs 1% DMSO) of non-amplified cells (OVSAHO, CAOV3) minus that of MYC-HSF1 amplified cells (OVCAR8, OVCAR4); positive = greater response in amplified cells; 10 µM
row,Structure (SMILES),Non Amp - AMP (POC) 10 uM
1,"N[C@@H]1C[C@H]1c1ccccc1 (racemic) [Tranylcypromine (hydrochloride), Tranylcypromine]",0.7437 POC
2,O=C(Nc1ccc2c(O)cc(S(=O)(=O)O)cc2c1)Nc1ccc2c(O)cc(S(=O)(=O)O)cc2c1 [AMI-1],19.64 POC and 18.34 POC
3,COc1cc2c(cc1OCCCN1CCCC1)N=C(N)C21CCC1 [A-366],11.91 POC
4,COc1cccc2c1C(=O)c1c(O)c3c(c(O)c1C2=O)C[C@@](O)(C(=O)CO)C[C@@H]3O[C@H]1C[C@H](N)[C@H](O)[C@H](C)O1 [Doxorubicin],4.864 POC
5,Cc1cc(C)cc(C(=O)NOCCCCCC(=O)NO)c1 [LMK 235],44.96 POC and 34.77 POC
6,CCCCCCCCCCCCCCCc1cccc(O)c1C(=O)O [Anacardic acid],17.46 POC
7,Nc1nccc2c1ncn2[C@@H]1C=C(CO)[C@@H](O)[C@H]1O [3-Deazaneplanocin A],28.52 POC
8,CCCc1cc2c(N3CCN(C4=NCC(C)(C)S4)CC3)ncnc2s1 [MI-2],8.542 POC
9,Nc1nccc2c1ncn2[C@@H]1C=C(CO)[C@@H](O)[C@H]1O [3-Deazaneplanocin A (DZNep) hydrochloride],8.136 POC
10,COc1cc(OC)c2c(=O)[nH]c(-c3cc(C)c(OCCO)c(C)c3)nc2c1 [RVX-208],12.33 POC and 7.058 POC
11,CC[C@@H]1C(=O)N(C)c2cnc(Nc3ccc(C(=O)NC4CCN(C)CC4)cc3OC)nc2N1C1CCCC1 [BI-2536],15.69 POC

# Same assay, conditions: 10 uM, 48 hrs; average relative cell viability (vs 1% DMSO) of non-amplified cells (OVSAHO, CAOV3) minus that of MYC-HSF1 amplified cells (OVCAR8, OVCAR4); positive = greater response in amplified cells; listed as A 366, 10 µM
row,Structure (SMILES),Non Amp - AMP (POC) 10 uM
1,COc1cc2c(cc1OCCCN1CCCC1)N=C(N)C21CCC1 [A-366],3.68 POC

# Same assay, conditions: 10 uM, 48 hrs; average relative cell viability (vs 1% DMSO) of non-amplified cells (OVSAHO, CAOV3) minus that of MYC-HSF1 amplified cells (OVCAR8, OVCAR4); positive = greater response in amplified cells; listed as Anacardic Acid, 10 µM
row,Structure (SMILES),Non Amp - AMP (POC) 10 uM
1,CCCCCCCCCCCCCCCc1cccc(O)c1C(=O)O [Anacardic acid],5.093 POC

# Same assay, conditions: 10 uM, 48 hrs; average relative cell viability (vs 1% DMSO) of non-amplified cells (OVSAHO, CAOV3) minus that of MYC-HSF1 amplified cells (OVCAR8, OVCAR4); positive = greater response in amplified cells; listed as BI 2536, 10 µM
row,Structure (SMILES),Non Amp - AMP (POC) 10 uM
1,CC[C@@H]1C(=O)N(C)c2cnc(Nc3ccc(C(=O)NC4CCN(C)CC4)cc3OC)nc2N1C1CCCC1 [BI-2536],−3.682 POC

# Same assay, conditions: 10 uM, 48 hrs; average relative cell viability (vs 1% DMSO) of non-amplified cells (OVSAHO, CAOV3) minus that of MYC-HSF1 amplified cells (OVCAR8, OVCAR4); positive = greater response in amplified cells; listed as Tranylcypromine hydrochloride, 10 µM
row,Structure (SMILES),Non Amp - AMP (POC) 10 uM
1,"N[C@@H]1C[C@H]1c1ccccc1 (racemic) [Tranylcypromine (hydrochloride), Tranylcypromine]",−0.6348 POC
